From US7138491B2, “Carboline-3-carboxylic acid modified related sequences of Ala-Arg-Pro-Ala-Lys, their synthesis and use as thromobolytic agent” (Guangzhou Bai Yun Shan Pharmaceutical Co., Ltd., priority 2003, dated 2006)
Marks after values point to notes of the source that are not given here. Ends that are not written are not given here.

How the values were obtained:
fibrin plate = assay: In vitro fibrinolytic lysis on fibrin plate (fibrinogen-agarose); format: biochemical, rabbit; settings: dosage per well differs per compound (0.8-2.2 μg; UK 5 IU); n = 6; NS control 21.01 ± 9.26
Procedure: The plates were prepared by mixing equal volumes of 0.3% rabbit fibrinogen and 0.95% agarose solutions, both dissolved in 50 mM of barbital buffer (pH 7.8, contained 1.66 mM of CaCl2, 0.68 mM of MgCl2 and 93.96 mM of NaCl)^[6]. The fibrinogen-agarose mixture was coagulated with […] thrombin (100 IU: ml) in the plastic dishes (its diameter is 90 mm and the depth of the fibrin plate is 1 mm). After 30 min at 4° C. an adequate number of wells, 5 mm in diameter, were perforated. To determine fibrinolytic activity […] aliquots of the tested pseudopeptides were added to each well, the plate was incubated, and areas of lysis were quantified as described for the regular fibrin plates.

[1] = tested on: rabbit euglobulin fraction; assay: In vitro euglobulin clot lysis time (ECLT); format: biochemical; settings: dosage differs per compound (1.3-6.7 μg; UK 5 IU); 96 well microtiter plate; n = 6; NS control 200.01 ± 15.26
Procedure: The rabbit euglobulin fraction was prepared according to the literature^[6]. Plasma diluted […] in distilled water was precipitated at pH 5.7 with acetic acid (0.25%). After 30 min at 4° C. the suspension was centrifuged at 2000 g for 15 min and the precipitate was resuspended to the initial plasma volume with 50 mM barbital buffer (pH 7.8, contained 1.66 mM of CaCl2, 0.68 mM of MgCl2 and 93.96 mM of NaCl). Euglobulin clot lysis time (ECLT) of the tested pseudopeptide was measured using a 96 well microtiter plate^[7] and the data are listed in Table 2.

thrombus = assay: In vivo thrombolytic activity, thrombus on steel helix in extracorporeal circulation; settings: male Wistar rats; injected; dose differs per compound (3.1-8.2 mg/kg; UK 20000 IU); blood circulated 90 min; n = 10; NS control 12.31 ± 2.57
Procedure: Male Wistar rats weighing 200–300 g (purchased from Animal Center of Peking University) were anesthetized with pentobarbital sodium (80.0 mg/kg, ip). The right carotid artery and left vein jugular of the animals were separated. To the glass tube filled with artery blood (1.0 ml) from the right carotid artery of the animal a stainless steel filament helix (15 circles; L, 15 mm; D, 1.0 mm) was put immediately. After 15 minutes the helix with thrombus was carefully taken out and weighted exactly, which was put into the middle polyethylene tube. The polyethylene tube was full with heparin sodium (50 IU/ml of NS) and one end was inserted into the left jugular vein. Heparin sodium was injected via the other end of the polyethylene tube as the anticoagulant, following which the tested pseudopeptide was injected. The blood was circulated through the polyethylene tube for 90 min, after which the helix was taken out and weighted accurately.

Substance | Effect of the pseudopeptides on fibrin plate, areas of lysis, x ± SD (fibrin plate) | Euglobulin clot lysis time, x ± SD [1] | The reduction of thrombolytic mass, x ± SD (thrombus)
3S-1,2,3,4-tetrahydro-β-carboline-3-carboxyl-Ala-Arg-Pro-Ala-Lys-OH (ARPAK-OH; not fully specified (N-terminus); printed as 3S-1,2,3,4-tetrahydro-β-carboline-3-carboxyl-Ala-Arg-Pro-Ala-Lys-OH) [compound 11] | 24.10 ± 10.16 mm^2 | 204.01 ± 32.61 min | 14.01 ± 2.61 mg
3S-1,2,3,4-tetrahydro-β-carboline-3-carboxyl-Ala-Arg-Pro-Ala-OH (ARPA-OH; not fully specified (N-terminus); printed as 3S-1,2,3,4-tetrahydro-β-carboline-3-carboxyl-Ala-Arg-Pro-Ala-OH) [compound 17] | 23.44 ± 10.18 mm^2 | 213.55 ± 30.47 min | 13.55 ± 2.47 mg
3S-1,2,3,4-tetrahydro-β-carboline-3-carboxyl-Ala-Arg-Pro-OH [compound 18] | 23.88 ± 10.04 mm^2 | 203.66 ± 30.44 min | 13.66 ± 2.44 mg
3S-1,2,3,4-tetrahydro-β-carboline-3-carboxyl-Arg-Arg-Pro-Ala-Lys-OH (RRPAK-OH; not fully specified (N-terminus); printed as 3S-1,2,3,4-tetrahydro-β-carboline-3-carboxyl-Arg-Arg-Pro-Ala-Lys-OH) [compound 26] | 24.00 ± 12.01 mm^2 | 214.80 ± 32.96 min | 14.80 ± 2.96 mg
3S-1,2,3,4-tetrahydro-β-carboline-3-carboxyl-Arg-Pro-Ala-Lys-OH (RPAK-OH; not fully specified (N-terminus); printed as 3S-1,2,3,4-tetrahydro-β-carboline-3-carboxyl-Arg-Pro-Ala-Lys-OH) [compound 19] | 20.33 ± 9.28 mm^2 | 213.56 ± 29.95 min | 13.56 ± 2.45 mg
3S-1,2,3,4-tetrahydro-β-carboline-3-carboxyl-Asn-Arg-Pro-Ala-Lys-OH (NRPAK-OH; not fully specified (N-terminus); printed as 3S-1,2,3,4-tetrahydro-β-carboline-3-carboxyl-Asn-Arg-Pro-Ala-Lys-OH) [compound 15] | 23.21 ± 9.74 mm^2 | 213.12 ± 29.47 min | 13.12 ± 2.47 mg
3S-1,2,3,4-tetrahydro-β-carboline-3-carboxyl-Gln-Arg-Pro-Ala-Lys-OH (QRPAK-OH; not fully specified (N-terminus); printed as 3S-1,2,3,4-tetrahydro-β-carboline-3-carboxyl-Gln-Arg-Pro-Ala-Lys-OH) [compound 14] | 22.89 ± 10.02 mm^2 | 212.98 ± 28.42 min | 12.98 ± 2.42 mg
3S-1,2,3,4-tetrahydro-β-carboline-3-carboxyl-Gly-Arg-Pro-Ala-Lys-OH (GRPAK-OH; not fully specified (N-terminus); printed as 3S-1,2,3,4-tetrahydro-β-carboline-3-carboxyl-Gly-Arg-Pro-Ala-Lys-OH) [compound 12] | 23.53 ± 9.74 mm^2 | 213.35 ± 29.47 min | 13.35 ± 2.47 mg
3S-1,2,3,4-tetrahydro-β-carboline-3-carboxyl-Lys-Arg-Pro-Ala-Lys-OH (KRPAK-OH; not fully specified (N-terminus); printed as 3S-1,2,3,4-tetrahydro-β-carboline-3-carboxyl-Lys-Arg-Pro-Ala-Lys-OH) [compound 13] | 24.01 ± 10.05 mm^2 | 214.11 ± 32.67 min | 14.11 ± 2.67 mg
3S-1,2,3,4-tetrahydro-β-carboline-3-carboxyl-Pro-Ala-Lys-OH [compound 20] | 19.41 ± 11.71 mm^2 | 209.31 ± 31.57 min | 13.31 ± 0.0257 mg
3S-(2-Ala-Arg-Pro)-1,2,3,4-tetrahydro-β-carboline-3-carboxylic acid [compound 28] | 21.21 ± 11.11 mm^2 | 213.23 ± 31.58 min | 13.23 ± 2.58 mg
3S-(2-Ala-Arg-Pro-Ala)-1,2,3,4-tetrahydro-β-carboline-3-carboxylic acid (ARPA; not fully specified (C-terminus)) [compound 27] | 23.32 ± 9.99 mm^2 | 203.89 ± 29.67 min | 13.89 ± 2.67 mg
3S-(2-Ala-Arg-Pro-Ala-Lys)-1,2,3,4-tetrahydro-β-carboline-3-carboxylic acid (ARPAK; not fully specified (C-terminus)) [compound 21] | 119.70 ± 10.71^a mm^2 | 119.70 ± 23.71^a min | 19.7 ± 3.71^2) mg
3S-(2-Arg-Arg-Pro-Ala-Lys)-1,2,3,4-tetrahydro-β-carboline-3-carboxylic acid (RRPAK; not fully specified (C-terminus)) [compound 16] | 24.19 ± 10.08 mm^2 | 204.11 ± 32.87 min | 14.11 ± 2.87 mg
3S-(2-Arg-Pro-Ala-Lys)-1,2,3,4-tetrahydro-β-carboline-3-carboxylic acid (RPAK; not fully specified (C-terminus)) [compound 29] | 126.55 ± 9.98^a mm^2 | 104.40 ± 27.51^a min | 24.40 ± 2.51^a,d mg
3S-(2-Asn-Arg-Pro-Ala-Lys)-1,2,3,4-tetrahydro-β-carboline-3-carboxylic acid (NRPAK; not fully specified (C-terminus)) [compound 25] | 20.84 ± 10.77 mm^2 | 217.27 ± 30.57 min | 17.27 ± 3.57^2) mg
3S-(2-Gln-Arg-Pro-Ala-Lys)-1,2,3,4-tetrahydro-β-carboline-3-carboxylic acid (QRPAK; not fully specified (C-terminus)) [compound 24] | 133.89 ± 9.99^a mm^2 | 96.88 ± 29.21^1a min | 22.88 ± 9.21^1) mg
3S-(2-Gly-Arg-Pro-Ala-Lys)-1,2,3,4-tetrahydro-β-carboline-3-carboxylic acid (GRPAK; not fully specified (C-terminus)) [compound 22] | 125.90 ± 11.15^a mm^2 | 98.02 ± 25.21^a min | 24.02 ± 5.21^1) mg
3S-(2-Lys-Arg-Pro-Ala-Lys)-1,2,3,4-tetrahydro-β-carboline-3-carboxylic acid (KRPAK; not fully specified (C-terminus)) [compound 23] | 19.87 ± 9.58 mm^2 | 213.98 ± 29.45 min | 13.98 ± 2.45 mg
